In assay [1] the test system is isolated LSECs (liver sinusoidal endothelial cells). Briefly: SEM of fenestrations in isolated LSECs from young and old mice after 30 min drug treatment (second Example 7). The format is cell-based. The following applies: for Diameter / Frequency / Porosity: 30 min. The procedure: 3-4 and 18-24 month old male C57/B16 mice were obtained from the Animal Resource Centre in Perth, Western Australia. Animals were housed at the ANZAC Research Institute animal house on a 12 hour light/dark cycle and provided with ad libitum access to food and water. Mice were not fasted prior to euthanasia by a single intraperitoneal injection with 100 mg/kg ketamine and 10 mg/kg xylazine in saline. The study was approved by the Animal Welfare Committee of the Sydney Local Health District and was performed in accordance with the Australian Code of Practice for the care and use of animals for scientific research (AWC 2016/009). All information provided accords with the ARRIVE guidelines.
As described previously (Cogger et al. J e52698, 2015 https://dx.doi.org/10.3791/52698), mouse LSEC isolation was performed by perfusion of the liver with collagenase. Non-parenchymal cells were removed by a two-step Percoll gradient and Kupffer cells were removed by selective adherence to plastic. LSECs (seeded at 0.5×10^6 cells/cm2) were cultured (37° C., 5% CO2) in serum free RPMI-1640 for 3.5 hours before use.
Cells were treated with various agents for 30 minutes to determine effects on fenestrations. All agents were dissolved in serum-free RPMI media. All experiments were performed in triplicate for both young and old mice. Actin was disrupted with 0.5 μg/ml cytochalasin D and lipid rafts were disrupted with 3.6 and 1.8 μg/ml 7-keocholesterol; dosages were selected. […] The serotonergic/phospholipase C pathway was promoted with DOI (0.1 μg/ml) and endothelin receptors were inhibited by bosentan (550, 55 and 5.5 ng/ml) Death receptor 4 was promoted with TRAIL (100, 10. 1, 0.1 and 0.01 ng/ml) and NAD+ was promoted with NMN (5000, 50, 10, 1 and 0.1 μg/ml).
SEM was performed as previous described (Corbin et al J Biol Chem 274: 13729-13732, 1999.). LSECs were fixed in 2.5% glutaraldehyde in 0.1M sodium cacodylate buffer, osmicated, dehydrated in graded ethanol and hexamethyl disilazane, mounted on stubs, sputter coated with platinum and examined using a JEOL 6380 Scanning Electron Microscope (JEOL Ltd, Japan). Images at 10,000× magnification were collected by a blinded observer and used to measure fenestration diameter and LSEC porosity using Image J (NIH, MD, USA). […] Fenestrations less than 30 nm and gaps more than 300 nm were excluded from analysis. Porosity was defined as the percentage of the cell membrane covered with fenestrations. Frequency was defined at the number of fenestrations per […].
Individual specifications of analyses are described in figures legends. All data are presented as mean±SD. Experimental design and analysis were performed in accordance with the APS guidelines described in Curran-Everett and Benos DJ. Adv Physiol Educ 31: 295-298, 2007.

A further assay relates to LSEC fenestrations. In words: SEM of LSEC fenestrations after drug treatments (Example 2, FIGS. 1-6). The format is cell-based, mice. The following applies: for fenestration porosity: 0.1 μM; for change in fenestration diameter: Bosentan 0.1 μM, Sildenafil 300 ng/ml, TRAIL 1 μg/ml. The source says: Young and old C57B16 mice (n=3 young mice, age 3-4 and n=3 old mice, 20-24 months) were maintained under full SPF conditions and with ad libitum feeding. The study had the approval of the Sydney South West Area Health Service Animal Welfare Committee. Mice at 20-24 months are senescent. Animals were sacrificed withCO2 and livers immediately perfusion-fixed via a 23G needle inserted into the portal vein. Liver tissue was fixed with1% glutaraldehyde/4% para-formaldehyde in PBS (0.1M sucrose).
Drug treatments and dosages (shown superimposed on their corresponding image in FIGS. 1, and 2) were performed by incubating liver cells at 37° C., 5% CO2 for 30 mins using RPMI with or without dissolved drug. All images were taken by two blinded researchers using a SEM at 10,000×, scale bars of 1 μm are shown.
Each data point represents the average±SD of 8 images (as shown in FIGS. 1 and 2), 616-3312 fenestration raw data points were collected per treatment.

Assay [2] deals with actin cytoskeleton of LSECs. Briefly: dSTORM imaging of the actin cytoskeleton. The format is cell-based. Particulars: young mice. The procedure: dSTORM imaging was performed using an in-house microscope. LSECs were prepared for dSTORM by washing twice with PBS and fixation with 4% paraformaldehyde for 30 mins. Then LSECs were washed twice with PBS, permeabilised with Triton-X for 90 secs, blocked with 5% bovine serum albumin for 1 hour, and stained with Alexa Flour phalloidin 488 (1:40) for 20 min prior to imaging. Cells were washed using PBS with 0.1% Tween and placed in OxEA buffer (30) for dSTORM visualisation and image capture. The dSTORM used 488 and 647 nm excitation from diode-pumped lasers (Coherent Inc, CA, USA). Excitation was delivered via a 1.49NA 60× oil-immersion TIRF objective (Olympus Australia, AUS). Fluorescence was captured on two separate sCMOS cameras (Imaging Development Systems GmbH, Germany). Data was collected for up to 40,000 images at around 75 fps. 5-8 whole cell images were collected by a blinded observer for each treatment dosage and processed using rapidSTORM open source software (Wolter et al. Nat Methods 9: 1040, 2012.). Each image was examined for all sieve plates and actin structures. Densitometry measurements were performed using 5-8 dSTORM images with data analysis performed using Image J software (NIH, MD, USA).

Assay [3] relates to lipid rafts and fenestrations of LSECs. In words: 3D-SIM study of lipid rafts and fenestrations. The format is cell-based. An excerpt: Sieve plates containing fenestrations are intercalated between thickened areas of membrane (lipid rafts).

“Also recorded” adds a separate entry of the source.

Consider `CCOC(=O)C1=C(COCCN)NC(C)=C(C(=O)OC)C1c1ccccc1Cl` (stereo not shown) [Amlodipine, amlodipine], for which, in assay [1] (old mice, 5 ng/ml), the Diameter worked out at 119.67 ± 22.63 nm, the Frequency amounted to 3.56 ± 1.07 no/area and the Porosity was 4.44 ± 0.29 %. Besides, in assay [1] (old mice, 20 ng/ml), the “Change in Frequency, Old” value was “↑ (ns)”; the “Change in Porosity, Old” value is listed as “↑ (ns)”; the Diameter is given as 125.00 ± 13.36 nm; the Frequency amounted to 3.00 ± 0.66 no/area. In addition, the Porosity in assay [1] (old mice, 20 ng/ml) is listed as 3.98 ± 0.48 %. For the same compound, in assay [1] (young mice, 5 ng/ml), the Diameter is listed as 125.87 ± 9.30 nm, the Frequency came out at 3.47 ± 1.00 no/area and the Porosity is given as 4.73 ± 0.80%. In assay [1] (young mice, 20 ng/ml), this compound showed a Diameter of 123.66 ± 1.18 nm, a Frequency of 4.67 ± 0.65 no/area and a Porosity of 6.44 ± 1.14 %. Besides, the fenestration diameter in the assay on LSEC fenestrations (young mice, 20 ng/ml) is 123.8±1.6 nm.

Turning to `COc1ccccc1Oc1c(NS(=O)(=O)c2ccc(C(C)(C)C)cc2)nc(-c2ncccn2)nc1OCCO` [Bosentan, bosentan], the Diameter in assay [1] (old mice, 5.5 ng/ml) is listed as 131.03 ± 16.29 nm; in assay [1] (old mice, 55 ng/ml) it was 121.14 ± 23.80 nm; in assay [1] (old mice, 550 ng/ml), 118.64 ± 4.36 nm; in assay [1] (young mice, 5.5 ng/ml), 129.55 ± 5.46 nm; in assay [1] (young mice, 55 ng/ml) it was 132.12 ± 9.03 nm; in assay [1] (young mice, 550 ng/ml), 133.73 ± 9.03 nm. Also, the Frequency is on record as 3.14 ± 0.35 no/area in assay [1] (old mice, 5.5 ng/ml); 2.31 ± 1.03 no/area in assay [1] (old mice, 55 ng/ml); 1.46 ± 0.54 no/area in assay [1] (old mice, 550 ng/ml); 3.66 ± 0.30 no/area in assay [1] (young mice, 5.5 ng/ml); 3.20 ± 1.23 no/area in assay [1] (young mice, 55 ng/ml); 2.30 ± 0.04 no/area in assay [1] (young mice, 550 ng/ml). In addition, the Porosity turned out to be 4.53 ± 0.59 % in assay [1] (old mice, 5.5 ng/ml); 3.21 ± 0.36% in assay [1] (old mice, 55 ng/ml); 1.86 ± 0.72% in assay [1] (old mice, 550 ng/ml); 5.18 ± 0.45% in assay [1] (young mice, 5.5 ng/ml); 4.48 ± 1.12% in assay [1] (young mice, 55 ng/ml); 3.66 ± 0.41% in assay [1] (young mice, 550 ng/ml). Besides, the “effect on porosity and fenestration frequency (summary in words)” value in assay [1] (young and old LSECs) was “LSECs from old mice only were responsive”. The fenestration porosity in the assay on LSEC fenestrations (old mice) is 4.2±0.4%; in the assay with LSEC fenestrations (young mice), 5.4±0.1%. In addition, the “change in fenestration diameter” value in the assay on LSEC fenestrations (old mice, 7KC 4.5 μM) is on record as “No changes”; with LSEC fenestrations (young mice), “No changes”. Also, the “sieve plates and fenestration density on SEM images” value with LSEC fenestrations (young and old mice) is “maintained sieve plates and increased fenestration density”. Besides, in assay [2], the “actin changes with drug treatments (dSTORM)” value is recorded as “Stress fibres; also recorded: Fused actin structure; also recorded: Individual fenestrations”.

Regarding `CCC(C)(C)C(=O)O[C@H]1C[C@@H](C)C=C2C=C[C@H](C)[C@H](CC[C@@H]3C[C@@H](O)CC(=O)O3)[C@H]21` [Simvastatin, simvastatin], in assay [1] (old mice, 0.1 μg/ml), the “Change in Diameter, Old” value was “↑ (ns)”; the Diameter is on record as 147.47 ± 6.47 nm; the Frequency worked out at 1.89 ± 0.74 no/area. In assay [1] (old mice, 1 μg/ml), the “Change in Diameter, Old” value is “↑ (ns)”; the Diameter is given as 145.96 ± 6.55 nm; the Frequency was 1.88 ± 0.86 no/area. In assay [1] (young mice, 0.1 μg/ml), this compound displayed a Diameter of 144.35 ± 18.95 nm, a Frequency of 2.42 ± 0.55 no/area and a Porosity of 4.05 ± 0.41%. In assay [1] (young mice, 1 μg/ml), this compound had a Diameter of 126.55 ± 9.64 nm, a Frequency of 2.83 ± 0.51 no/area and a Porosity of 3.99 ± 0.55%. In the assay on LSEC fenestrations (old mice, both Simvastatin treatments), this compound gave a fenestration diameter of 152.0±19.2 nm.

For Triton X-100, the “effect on fenestrations and lipid rafts” value in assay [3] is “decreased fenestrations and increased rafts”.

Turning to VEGF, the “effect on fenestrations and lipid rafts” value in assay [3] was “depleted lipid rafts and increased fenestrations”.

The values are drawn from patent US20210161894A1, “Compositions and Methods for Modulating Liver Endothelial Cell Fenestrations” (priority 2017, published 2021).
